# Earlier results as cited in patent US9511035B2, “Java ginger extract and manufacturing method” (Hosoda SHC Inc., priority 2013, dated 2016).
# What was measured:
# [1] = tested on: rat adrenal medullary pheochromocytoma (PC12 cell); details: stated in words; for NGF-like action: no data in this patent, earlier finding of the inventors (JP 2010-90053 A)
# chemokine expression = details: disclosed in JP 2003-306438 A
# [2] = target: platelet-activating factor (Homo sapiens, UniProt P25105); details: disclosed in JP 2003-313116 A
# platelet-activating factor, sequence (P25105 whole entry): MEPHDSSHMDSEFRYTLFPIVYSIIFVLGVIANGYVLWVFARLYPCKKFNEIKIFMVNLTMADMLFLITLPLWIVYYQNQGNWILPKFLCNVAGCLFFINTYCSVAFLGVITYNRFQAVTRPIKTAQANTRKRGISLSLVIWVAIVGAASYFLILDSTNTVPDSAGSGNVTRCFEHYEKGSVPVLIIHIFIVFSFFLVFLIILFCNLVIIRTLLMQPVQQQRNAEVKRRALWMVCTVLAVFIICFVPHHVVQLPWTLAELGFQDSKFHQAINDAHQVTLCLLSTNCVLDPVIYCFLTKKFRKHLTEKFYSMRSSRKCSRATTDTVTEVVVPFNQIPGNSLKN
# tyrosinase = details: disclosed in JP 2003-313116 A
platelet-activating factor antagonism [2],tyrosinase activity-inhibiting action (tyrosinase),SMILES,NGF-like action [1],chemokine expression-inhibiting action (chemokine expression),process extension activity ([1]; PC12 cell),differentiation of PC12 cell ([1]; as is the case with the NGF),NGF-like action (neuronal process extension action) relative to NGF ([1]; comparison with NGF)
–,–,"C=C/C=C/c1ccc(OC)c(OC)c1 [monomer, phenyl butenoid monomer, reference compound]",no NGF-like action,–,–,–,–
platelet-activating factor antagonism,tyrosinase activity-inhibiting action,COc1ccc(/C=C/C2CCC=CC2c2ccc(OC)c(OC)c2)cc1OC (centres unmarked) [phenyl butenoid dimer],showed an NGF-like action,chemokine expression-inhibiting action,shows a process extension activity,induces differentiation,more effective than NGF
